# Measurements from patent publication US11179363B2, “Non-steroidal selective glucocorticoid receptor agonistic modulators (SEGRAMs) and uses thereof” (ASSOCIATION POUR LA RECHERCHE À L'IGBMC (ARI), priority 2017, dated 2021).
# How the values were obtained:
# [1] = system: dorsal skin of Balb/C mice; test: Skin epidermis atrophy after 8-day topical treatment of dorsal skin; assay type: in vivo; conditions: eight-day topical treatment
# Text: To investigate whether, similarly to Dex, a topical administration of CpdX could result in a skin atrophy, Balb/C mice were shaved on the dorsal skin. Ethanol (vehicle), Dex, CpdX or either one of its two enantiomers CpdX(eA) or CpdX(eB), as well as the deuterated form CpdX-D3 or either one of its two enantiomers CpdX-D3(eA) or CpdX-D3(eB), were topically applied onto the dorsal skin for 8 days.
# Upon completion of the treatments, RNA transcripts were extracted from dorsal skin samples and the transcripts of Kindlin-1 and REDD1 genes were analyzed by q-RT-PCR. Histological and morphometric analyses of the dorsal skin were also performed.
# [2] = system: adrenal glands; test: Corticosterone synthesis and adrenal gland after three-month treatment; assay type: in vivo, B6 male mice; conditions: three months; for cortex layers, most notably the fasciculata zone, of the adrenal glands (histology) / transcripts of Cyp11a, Cyp11b1 and HSD3β genes in adrenal glands (corticosterone synthesis pathway): s.c. 1 mg/kg daily; for transcripts of Cyp11a, Cyp11b1 and HSD3β genes in adrenal glands (corticosterone synthesis pathway): q-RT-PCR; for plasmatic corticosterone level at 10 a.m.: vs Vehicle
# Method: B6 male mice (8-week-old) were daily subjected for three months to either a subcutaneous injection of vehicle (NaCl 0.9%), Dex, CpdX, CpdX(eA), CpdX(eB), CpdX-D3, CpdX-D3(eA) or CpdX-D3(eB) (1 mg/kg body weight, diluted in vehicle).
# Following this long-term treatment, blood was collected at 10 a.m. and 6 p.m. by retro-orbital puncture in lithium-heparin coated vials, and the plasmatic level of corticosterone was determined. Adrenal glands were harvested and weighted. RNA transcripts were extracted and transcripts of the Cyp11a, Cyp11b1, Cyp11b2 and HSD3β genes were analyzed by q-RT-PCR. Histological analyses of the adrenal glands were also carried out.
# [3] = system: collagen-induced Th17 rheumatoid arthritis-like inflammation; test: Collagen-induced arthritis (CIA); assay type: in vivo, mice (DBA-1 strain); conditions: i.p. 1 mg/kg daily for 10 days (T0 to T10); 1 mg/kg
# Method: Mice were treated with collagen to induce a Th17 rheumatoid arthritis-like inflammation as described by Inglis et al. (2007. Arthritis Res Ther. 9(5):R113) and Geboes et al. (2009. Arthritis Rheum. 60(2):390-5).
# Male mice (DBA-1 strain) were subcutaneously-injected with 100 μg collagen per mouse on D0. The hind paw thickness at the ankle level was regularly measured with a caliper. When the ankle thickness had reached around 4 mm (T0, i.e., 30 to 50 days after the collagen injection on D0), mice were daily intraperitoneally-injected for 10 days (T0 to T10) with either vehicle (NaCl 0.9%), Dex, CpdX, CpdX(eA), CpdX(eB), CpdX-D3, CpdX-D3(eA) or CpdX-D3(eB) (1 mg/kg body weight diluted in NaCl 0.9%), and the hind paw thickness at the ankle level was daily measured with a caliper. Pictures of the hind paws were taken at days T0 and T10 (before and after the treatment with either Vehicle, Dex, CpdX, CpdX(eA), CpdX(eB), CpdX-D3, CpdX-D3(eA) or CpdX-D3(eB)), in order to assess the course of swelling.
# RNA transcripts were extracted from whole hind paws of collagen-untreated and collagen-treated mice at T0 and T10. IL-1β, IL-6, IL-17a, IL-17f and TNFα transcripts were analyzed by q-RT-PCR.
# [4] = system: OVA-induced allergic conjunctivitis; test: Ovalbumin (OVA)-induced allergic conjunctivitis; assay type: in vivo, Balb/C mice; conditions: 0.1% instillation D22 to D24, 20 minutes after the last OVA challenge
# Method: To investigate the anti-inflammatory effect of CpdX or CpdX-D3 on an allergic conjunctivitis, Balb/C mice were intraperitoneally sensitized with 50 μg OVA with alum on both days D1 and D8, and then challenged from D15 to D21 with 250 μg OVA in 5 μL of sterilized vehicle (0.9% NaCl), which were directly instilled onto the conjunctival sac. From D22 to D24, mice were divided into several groups, and received instillations with either OVA alone, OVA together with 0.1% of either Dex, CpdX, CpdX(eA), CpdX(eB), CpdX-D3, CpdX-D3(eA) or CpdX-D3(eB).
# The clinical appearance of mouse eyes was evaluated 20 minutes after the last instillation on D24. Clinical signs (conjunctival hyperemia, lid edema and tearing) were scored to evaluate the occurrence and severity of conjunctivitis as described by Gimenes et al. (2015. Experimental Eye Research 134:24-32). Parameters were graded on a scale ranging from 0 to 3, (0=absence, 1=mild, 2=moderate, and 3=severe symptoms), each animal receiving a total clinical score ranging from 0 to 9. The data were expressed as mean±SEM with at least four mice per treatment.
# [5] = Blood glucose and intraperitoneal glucose tolerance test (IPGTT) after three-month treatment; assay type: in vivo, B6 male mice; conditions: three months; glucose i.p. injection
# Method: B6 male mice (8-week-old) were daily subjected for three months to a subcutaneous injection of either vehicle (NaCl 0.9%), Dex, CpdX, CpdX(eA), CpdX(eB), CpdX-D3, CpdX-D3(eA) or CpdX-D3(eB) (1 mg/kg body weight, diluted in vehicle). Mice were over-night-fasted. Mouse blood glucose concentration was measured before (To) and during two hours (T120) after glucose i.p. injection ([…]).
# [6] = system: DSS-induced Th17 ulcerative colitis; test: Dextran sodium sulfate (DSS)-induced ulcerative colitis; assay type: in vivo, Balb/C mice; conditions: for pro-inflammatory genes overexpressed in DSS-induced ulcerative colitis (IL-1β, IL-6, IL-17a, IL-17f, TSLP, MMP13): colon, q-RT-PCR, D14; for colonic villus/crypt structure (histology) / mucosal and submucosal cell infiltration (histology): i.p. 1 mg/kg on D11, D12, D13, 3% DSS 13 days
# Method: To investigate the anti-inflammatory activity of CpdX and CpdX-D3 on a Th17 ulcerative colitis, Balb/C mice were treated with 3% DSS in drinking water for 13 days, with or without an intraperitoneal administration of either Dex, CpdX, CpdX(eA), CpdX(eB), CpdX-D3, CpdX-D3(eA) or CpdX-D3(eB) (1 mg/kg of body weight) on D11, D12 and D13.
# At D14, RNA transcripts were extracted from mouse colons. IL-1β, IL-6, IL-17a, IL-17f, TSLP and MMP13 transcripts were analyzed by q-RT-PCR. Colon samples were also harvested for histological analyses (with H&E staining).
# [7] = system: thymus, spleen, adrenal gland and kidney; test: Organ weights (thymus, spleen, adrenal gland, kidney) after three-month treatment; assay type: in vivo, B6 male mice; conditions: s.c. 1 mg/kg daily, three months
# Method: B6 male mice (8-week-old) were daily subjected for three months to a subcutaneous injection of either vehicle (NaCl 0.9%), Dex, CpdX, CpdX(eA), CpdX(eB), CpdX-D3, CpdX-D3(eA) or CpdX-D3(eB) (1 mg/kg body weight, diluted in vehicle). Following these treatments, four organs (thymus, spleen, adrenal gland and kidney) were harvested and weighted.
compound,measurement,setting,value
"COc1ccc(F)cc1C(C)(C)CC(O)(CNc1ccc2c(c1)COC2=O)C(F)(F)F (single isomer, unassigned; enantiomer b) [CpdX(eB), 5-[4-(5-fluoro-2-methoxyphenyl)-2-hydroxy-4-methyl-2-(trifluoromethyl)-pentylamino]isobenzofuran-1(3H)-one enantiomer B]",epidermal thickness (morphometric analyses),[1],not significantly decreased
same,"cortex layers, most notably the fasciculata zone, of the adrenal glands (histology)",[2],markedly increased
same,"transcripts of Cyp11a, Cyp11b1 and HSD3β genes in adrenal glands (corticosterone synthesis pathway)",[2],increased
same,plasmatic corticosterone level at 10 a.m.,[2],much higher
same,hind paw thickness at the ankle level,[3],no such decrease
same,"clinical signs of allergic conjunctivitis (conjunctival hyperemia, lid edema and tearing)",[4],considerably reduced
same,blood glucose level during two-hour IPGTT,[5],no significant difference
same,"pro-inflammatory genes overexpressed in DSS-induced ulcerative colitis (IL-1β, IL-6, IL-17a, IL-17f, TSLP, MMP13)",[6],similarly repressed
same,colonic villus/crypt structure (histology),[6],almost reestablished
same,mucosal and submucosal cell infiltration (histology),[6],significantly decreased
same,thymus apoptosis (thymus weight),[7],did not result in any significant thymus apoptosis
"[2H]C([2H])([2H])Oc1ccc(F)cc1C(C)(C)CC(O)(CNc1ccc2c(c1)COC2=O)C(F)(F)F (single isomer, unassigned; enantiomer b) [CpdX-D3(eB), 5-{4-[2-(methoxy-D3)-5-fluorophenyl]-2-hydroxy-4-methyl-2-(trifluoromethyl)pentylamino}isobenzofuran-1(3H)-one enantiomer B]",epidermal thickness (morphometric analyses),[1],not significantly decreased
same,"cortex layers, most notably the fasciculata zone, of the adrenal glands (histology)",[2],markedly increased
same,"transcripts of Cyp11a, Cyp11b1 and HSD3β genes in adrenal glands (corticosterone synthesis pathway)",[2],increased
same,plasmatic corticosterone level at 10 a.m.,[2],much higher
same,hind paw thickness at the ankle level,[3],no such decrease
same,"clinical signs of allergic conjunctivitis (conjunctival hyperemia, lid edema and tearing)",[4],considerably reduced
same,blood glucose level during two-hour IPGTT,[5],no significant difference
same,"pro-inflammatory genes overexpressed in DSS-induced ulcerative colitis (IL-1β, IL-6, IL-17a, IL-17f, TSLP, MMP13)",[6],similarly repressed
same,colonic villus/crypt structure (histology),[6],almost reestablished
same,mucosal and submucosal cell infiltration (histology),[6],significantly decreased
same,thymus apoptosis (thymus weight),[7],did not result in any significant thymus apoptosis
